Source: patent US10548894B2, “Combination therapy” (Array BioPharma Inc., priority 2013, dated 2020)

Experiments:
Test in all cases: 72 hr cell titer Glo proliferation assay, BRAFV600E mutant CRC cell lines
Format in all cases: cell-based
[1] = system: SNU-C5; conditions: SNU-C5 (PI3Kα mutation), single agent
Description: (§1) Single agent and combinatorial effects on proliferation of inhibitors of RAF (Compound of Formula (I)) and PIK3Ca (Compound X) kinases in seven BRAF-mutant CRC-derived cell lines. All cell lines express the BRAFV600E protein. Cells harboring known or putative activating mutations in the PI3Kα gene are marked with a (*) and cells with PTEN loss marked with a (#). Cell proliferation was measured in 72 hr cell titer Glo™ assays and all results supplied are the result of at least triplicate measurements. Shown are single agent IC50 values for the Compound of Formula (I) and Compound X. Synergy score (SS) measurements as well as the combination index (C150) at the 50% effect level are given for each combination) in Table 6. Interactions were deemed synergistic when SS values were ≥2.0 and CI values were ≤0.5. Interactions were deemed additive/synergistic when either SS values were ≥2.0 but CI values were >0.5 or SS values were <2.0 but CI values were ≤0.5. Interactions where termed additive when SS values were <2.0 and CI values were >0.5. Synergy calls are given in the “effect description” columns.

[2] = system: OUMS-23; conditions: OUMS-23 (PTEN loss), single agent
Description: as §1

[3] = system: SW1417; conditions: SW1417, single agent
Description: as §1

[4] = system: LS411N; conditions: single agent
Description: as §1

[5] = system: COLO 205; conditions: COLO 205, single agent
Description: as §1

[6] = system: RKO; conditions: RKO (PI3Kα mutation), single agent
Description: as §1

[7] = system: HT-29; conditions: HT-29 (PI3Kα mutation), single agent
Description: as §1

[8] = system: CL-34; conditions: CL-34, single agent
Description: as §1

Measured: IC50

Cc1nc(NC(=O)N2CCC[C@H]2C(N)=O)sc1-c1ccnc(C(C)(C)C(F)(F)F)c1 [Compound X, (S)-Pyrrolidine-1,2-dicarboxylic acid 2-amide 1-({4-methyl-5-[2-(2,2,2-trifluoro-1,1-dimethyl-ethyl)-pyridin-4-yl]-thiazol-2-yl}-amide)]
> 2700 nM: all assays above
